Data set [1] relates to Salm enteritidis Gaertner. The data set can be described thus: MIC (Table 4). In kind it is cell-based. The settings on record: 10^8 cells/ml; unit assumed. From the text:
(§1) | MIC Value (10^8 cells/ml)

A further data set concerns Staph. aureus MS 27. The data set can be described thus: MIC (Table 4). Particulars: 10^8 cells/ml; unit assumed. In kind it is cell-based.
Description: as §1

For data set [2], the system named is Klebs. pneumoniae ATCC 10031. The data set can be described thus: MIC (Table 4). The format is cell-based. Particulars: 10^8 cells/ml; unit assumed.
Description: as §1

The test system of a further data set is E. Coli W3630. In words: MIC (Table 4). The format is cell-based. Particulars: 10^8 cells/ml; unit assumed.
Description: as §1

A further data set has as its system Staph. aureus ATCC 6538p. In words: MIC (Table 4). The format is cell-based. The settings on record: 10^8 cells/ml; unit assumed.
Description: as §1

A further data set relates to E. Coli W3630 ps 3. In words: MIC (Table 4). In kind it is cell-based. Particulars: 10^8 cells/ml; unit assumed.
Description: as §1

Another data set has as its system E. Coli NIHJ-JC2. In words: MIC (Table 4). In kind it is cell-based. The settings on record: 10^8 cells/ml; unit assumed.
Description: as §1

For a further data set, the system named is Staph. aureus 0003. The data set can be described thus: MIC (Table 4). The format is cell-based. The settings on record: 10^8 cells/ml; unit assumed.
Description: as §1

Data set [3] can be described thus: Absorption test, oral, rats, solution in buffer pH 7 (Example 16). In kind it is in vivo, Male Wistar rats. Particulars: blood, 50 mg/kg oral, rat, average of 6, read-out: Blood Concentration of the Compound. The method, then: The absorption test of the compounds as obtained in Examples 1-11 were tested by the following method.
(§2) Male Wistar rats weighing 180-250 g were fed with only water overnight. The next day the rats were orally administered with 50 mg/kg of a test compound which was dissolved in a buffer solution having pH of 7. The concentration of the compound in blood of the tested animals (one group consisting of 6 animals) was measured 0.5, 1, 2 and 4 hours after the administration by Bioassay method by using Bacillus subtilis ATCC 6633 strain as an indicator bacteria. In the measurement, an ordinary culture medium was employed, and the preparation of the standard solution and other method were carried out in according to Japanese Antibiotical Pharmaceutical Standards. Further, the concentration of the compound in blood was also measured by high performance liquid chromatography. The blood concentration shown below was an average value of each animal group.

The nature of data set [4]: Blood concentration, oral, rats, suspended in CMC aqueous solution (Example 17). In kind it is in vivo, Male Wistar rats. The settings on record: 50 mg/kg oral, rat. The procedure: as §2
The blood concentration of the compounds as obtained in Examples 12-15 and the compounds as obtained in the same manner as in Examples 3 and 12, respectively, was measured. The measurement was carried out in the same manner as Example 16 except that the test compound was suspended in a CMC aqueous solution instead of being dissolved in a buffer solution having pH of 7.

Converted amounts (≈) assume the structure as drawn. Bounds are passed on as bounds.

Consider `Cc1nnc(SCC2=C(C(=O)O)N3C(=O)[C@@H](NC(=O)CSc4nc(C[C@H](N)C(=O)O)c[nH]4)[C@H]3SC2)s1` [drawing 13], for which the MIC Value in [1] was 50 µg/mL (≈ 87.5 µM); against Staph. aureus MS 27, 25 µg/mL (≈ 43.7 µM); in data set [2] it was 25 µg/mL (≈ 43.7 µM); in the data set with E. Coli W3630, 50 µg/mL (≈ 87.5 µM); against Staph. aureus ATCC 6538p, 1.6 µg/mL (≈ 2.8 µM); with E. Coli W3630 ps 3, 50 µg/mL (≈ 87.5 µM). The MIC Value in the data set on E. Coli NIHJ-JC2 was 50 µg/mL (≈ 87.5 µM); against Staph. aureus 0003 it was 25 µg/mL (≈ 43.7 µM).

As to `CC(=O)OCC1=C(C(=O)O)N2C(=O)[C@@H](NC(=O)CSc3nc(C[C@H](N)C(=O)O)c[nH]3)[C@H]2SC1` [Example 1, 7-β-[4-(2'-amino-2'-carboxy)ethylimidazol-2-yl-thioacetamido]-3-acetoxymethyl-3-cephem-4-carboxylic acid], the MIC Value in data set [1] stood at 100 µg/mL (≈ 200 µM); against Staph. aureus MS 27, 12.5 µg/mL (≈ 25 µM); in [2], 25 µg/mL (≈ 50 µM); against E. Coli W3630 it was 100 µg/mL (≈ 200 µM); against Staph. aureus ATCC 6538p it was 3.1 µg/mL (≈ 6.21 µM); in the data set on E. Coli W3630 ps 3 it was 100 µg/mL (≈ 200 µM). Also, the MIC Value came out at 50 µg/mL (≈ 100 µM) against E. Coli NIHJ-JC2 and 12.5 µg/mL (≈ 25 µM) in the data set on Staph. aureus 0003. Further, the concentration at 0.5 h in data set [3] (0.5 hr.) was found to be 3600 ng/mL. Also, in [3] (1 hr.), the concentration at 1 h turned out to be 1600 ng/mL. The concentration at 2 h in data set [3] (2 hrs.) worked out at 800 ng/mL. Moreover, in [3] (4 hrs.), the concentration at 4 h stood at 500 ng/mL.

Take `Cn1nnnc1SCC1=C(C(=O)O)N2C(=O)[C@@H](NC(=O)CSc3nc(C[C@H](N)C(=O)O)c[nH]3)[C@H]2SC1` [drawing 11]: the MIC Value in data set [1] turned out to be 12.5 µg/mL (≈ 22.5 µM); in the data set with Staph. aureus MS 27, 12.5 µg/mL (≈ 22.5 µM); in data set [2], 12.5 µg/mL (≈ 22.5 µM); against E. Coli W3630, 25 µg/mL (≈ 45 µM); against Staph. aureus ATCC 6538p, 1.6 µg/mL (≈ 2.88 µM); with E. Coli W3630 ps 3, 25 µg/mL (≈ 45 µM). Also, the MIC Value was determined as 25 µg/mL (≈ 45 µM) against E. Coli NIHJ-JC2 and 12.5 µg/mL (≈ 22.5 µM) against Staph. aureus 0003.

Consider `CC1=C(C(=O)O)N2C(=O)[C@@H](NC(=O)[C@H](N)c3ccccc3)[C@H]2SC1` [Cephalexin, reference compound], for which the MIC Value in data set [1] is > 100 µg/mL; in the data set with Staph. aureus MS 27, 50 µg/mL (≈ 144 µM); in data set [2], 25 µg/mL (≈ 72 µM); against E. Coli W3630 it was > 100 µg/mL; with Staph. aureus ATCC 6538p, 3.1 µg/mL (≈ 8.92 µM); against E. Coli W3630 ps 3, > 100 µg/mL. For the same molecule, the MIC Value with E. Coli NIHJ-JC2 is > 100 µg/mL; in the data set on Staph. aureus 0003, 50 µg/mL (≈ 144 µM).

For the molecule `CC(=O)NC(Cc1c[nH]c(SCC(=O)NC2C(=O)N3C(C(=O)O)=C(CSc4nnc(C)s4)CSC23)n1)C(=O)O` (stereo not drawn) [(18), 7-β-[4-(2'-methylamido-2'-carboxy)ethylimidazol-2-yl-thioacetamido]-3-[2-(2-methyl-1,3,4-thiazolyl)thiomethyl]-3-cephem-4-carboxylic acid], the “Blood Concentration of the Compound” value was found to be 10300 ng/mL in [4] (0.5 hr.), 11200 ng/mL in data set [4] (1 hr.) and 4900 ng/mL in data set [4] (4 hrs.).

The record behind these values is patent US4477659A, “Cephalosporin compound” (Asahi Kasei Kogyo Kabushiki Kaisha, priority 1981, dated 1984).
